According to US4443475A, “Amides of acyl-carnitines, process for preparing same and pharmaceutical compositions containing such amides” (priority 1979, dated 1984):
Like-named read-outs stand apart in the source and are kept apart here.

What was measured:
[1] = Acute toxicity (LD50), Weil method; details: mouse, in vivo, mice (Table I title)
[2] = Anti-arrhythmic (antifibrillation) effect, aconitine-induced arrhythmia; assay type: in vivo, mice; details: Mus musculus, ip, read-out: Antifibrillation Effects, % reduction
Method: (c) Anti-arrhythmic effect
In order to evaluate by means of in vivo test the anti-arrhythmic effect exerted by the various carnitine derivatives in addition to and versus the usual in vitro tests, the method described by Nwangwu et al. (Arch. Int. Pharmacodyn., 1977, v. 229, 219) was employed.
This method is carried out by injecting a solution of aconitine into the caudal […] and recording the time of the appearance of arrhythmia and tachycardia from 2 to 60 minutes following the administration of the compounds under investigation.

[3] = Effect antagonizing adrenaline (mortality); assay type: in vivo; details: Mus musculus, ip, mice, 36 hours, read-out: Antiadrenaline Effects, % mortality reduction; for responders at 300 mg/kg: 300 mg/kg i.p.; for responders at 100 mg/kg: 100 mg/kg i.p.; for responders at 50 mg/kg: 50 mg/kg i.p.; for responders at 70 mg/kg: 70 mg/kg i.p.
Method: (d) Effect antagonizing adrenaline
Male Albino Swiss mice weighing 12-22 g, divided into groups of 10, were treated with the compounds under investigation or with saline (controls) i.p. and then 30 minutes later with adrenaline (treated) at a dose capable of causing death in 100% of the control animals due to ventricular fibrillation and cardiac lesions ensuing from increased heart rate, pressure and oxygen consumption by the myocardium.
Mortality was monitored for 36 hours and the effect of the compounds was expressed in % of survivals versus treated animals.

isolated rabbit heart = assay: Inotropic effect on isolated rabbit heart (Langendorff) after anoxia; details: Oryctolagus cuniculus, 10 min; 10^-5 gl^-1, isolated rabbit heart, 10 minutes after end of anoxia; read-out: Inotropic Effect, % of controls (increased percentage versus controls)
Method: Rabbit hearts isolated by Langendorff's method were perfused in a Ringer solution oxygenated at 38.2° C. The isometric […], ECG and coronary flow were recorded using a "Battaglia-Rangoni" polygraph.
Metabolic damage in the heart muscle was induced by removing the oxygen from the perfusion liquid until contractile force was reduced by 80%.
In these conditions of prolonged anoxia myocardial […] glycolysis was slowed down, accompanied by accumulation of catabolic acids due to storage of pyruvic acid and its conversion to lactic acid which cannot be utilized owing to the depression of the pyridinic enzymes, such as lacticodehydrogenase. This affects anaerobic glycolysis involving an ever increasing number of enzymes, with a progressive and increasingly more critical exhaustion of the myocardium.
Thus there is a whole series of cardiac muscle fatigue levels recorded by the pattern of the parameters taken into account i.e. contractile force, coronary output, heart rate and cardiac rhythm. As soon as the contractile force was reduced by 80%, the perfusion liquid was once again oxygenated without adding other compounds (controls) or with the addition of the compounds under investigation at various concentrations.

[4] = Antagonism to cardiazol (protection from death by convulsions); assay type: in vivo; details: ip, rat, 5 hours; for responders at 150 mg/kg: 150 mg/kg i.p. (head); for responders at 100 mg/kg: 100 mg/kg i.p. (head); for responders at 50 mg/kg: 50 mg/kg i.p. (head)
[5] = Interaction with barbiturates (EVIPAN, loss of righting reflex); assay type: in vivo; details: Mus musculus, ip, mice, EVIPAN 75 mg/kg, read-out: Barbituric interaction, % reduction of RR (righting reflex) loss; for inhibition in vivo at 100 mg/kg: 100 mg/kg i.p. (head); for inhibition in vivo at 50 mg/kg: 50 mg/kg i.p. (head)
[6] = Effect on spontaneous motility (ANIMEX); assay type: in vivo; details: Mus musculus, ip, 0.5 h, mice, control 850 ± 65 in 30 min, read-out: Spontaneous motility, % increase versus controls; for change in vivo at 50 mg/kg: 50 mg/kg i.p.; for change in vivo at 25 mg/kg: 25 mg/kg i.p.
Method: (g) Effect on spontaneous motility
Male Albino Swiss mice weighing 18-22 g, were divided into two groups of 5 and caged for at least 1 week. One group received the compounds under investigation and the other group (control group) was given the vehicle. The animals remained in their cages and were placed on the ANIMEX (Farad-Sweden) apparatus which recorded the movements for two 30-minute intervals beginning from 5 minutes after administration of the compounds.
Table II gives the results expressed as percentage variation in the number of spontaneous movements of the treated animals versus those of the control animals.

| Structure (SMILES) | LD50 ([1]; ip, read-out: LD50 i.p.) [mg/kg] | LD50 ([1]; oral, read-out: LD50 oral) [mg/kg] | activation at 0.01 µg/mL (isolated rabbit heart) [%] | inhibition in vivo at 100 mg/kg [5] [%] | change in vivo at 50 mg/kg [6] [%] | change in vivo at 25 mg/kg [6] [%] | inhibition in vivo at 50 mg/kg [5] [%] | inhibition in vivo at 50 mg/kg [2] [%] | responders at 50 mg/kg [4] [%] | other results |
| --- | --- | --- | --- | --- | --- | --- | --- | --- | --- | --- |
| CCC(=O)OC(CC(=O)NCCS(=O)(=O)[O-])C[N+](C)(C)C (stereo not drawn) [OCOCH2 CH3; 2-sulfonyl ethyl amino] | 1500 | 4000 | 50 | 60 | 40 |  |  |  |  | inhibition in vivo at 150 mg/kg [2]: 95%; responders at 300 mg/kg [3]: 70%; responders at 150 mg/kg [4]: 40% |
| CCC(=O)OC(CC(=O)NC(CC(=O)OC)C(=O)OC)C[N+](C)(C)C (stereo not drawn) | 590 | 1800 | 50 | 25 |  | 59 |  |  |  | inhibition in vivo at 40 mg/kg [2]: 70%; responders at 100 mg/kg [3]: 70%; responders at 40 mg/kg ([4]; 40 mg/kg i.p. (head)): 51% |
| CCC(=O)OC(CC(=O)NC(C(=O)OC)C(C)C)C[N+](C)(C)C (stereo not drawn) | 500 | 1350 | 65 |  |  | 75 | 58 |  |  | inhibition in vivo at 35 mg/kg [2]: 60%; responders at 50 mg/kg [3]: 40%; responders at 35 mg/kg ([4]; 35 mg/kg i.p. (head)): 38% |
| COC(=O)C(NC(=O)CC(C[N+](C)(C)C)OC(C)=O)C(C)C (stereo not drawn) | 600 | 2400 | 70 |  |  |  | 40 | 100 |  | responders at 50 mg/kg [3]: 80%; responders at 100 mg/kg [4]: 84%; change in vivo at 35 mg/kg ([6]; 35 mg/kg i.p.): 50% |
| COC(=O)CC(NC(=O)CC(C[N+](C)(C)C)OC(C)=O)C(=O)OC (stereo not drawn) [COCH3; (1,2-dicarbomethoxy ethyl) amino] | 1500 | 4200 | 48 |  | 60 |  |  |  | 75 | inhibition in vivo at 75 mg/kg [2]: 80%; responders at 300 mg/kg [3]: 55% |
| CC(=O)OC(CC(=O)NCCS(=O)(=O)[O-])C[N+](C)(C)C (stereo not drawn) [COCH3; 2-sulfonyl ethyl amino, acetyl carnitine amide with taurine] | 1500 | 4000 | 62 | 30 | 25 |  |  |  |  | inhibition in vivo at 300 mg/kg [2]: 70%; responders at 450 mg/kg ([3]; 450 mg/kg i.p.): 65%; responders at 150 mg/kg [4]: 65% |
| CCCC(=O)OC(CC(=O)NCCS(=O)(=O)[O-])C[N+](C)(C)C (stereo not drawn) [OCOCH2CH2CH3; 2-sulfonyl ethyl amino] | 1500 | 4000 | 40 |  | 43 |  | 70 | 60 | 58 | responders at 300 mg/kg [3]: 50% |
| CCC(=O)OC(CC(=O)NC(CCC(=O)OC)C(=O)OC)C[N+](C)(C)C (stereo not drawn) | 400 | 1200 | 45 |  | 25 |  | 50 |  | 47 | inhibition in vivo at 10 mg/kg [2]: 60%; responders at 70 mg/kg [3]: 40% |
| CCC(=O)OC(CC(=O)NC(CC(C)C)C(=O)OC)C[N+](C)(C)C (stereo not drawn) [propionyl carnitine amide of leucine methyl ester] | 600 | 2350 | 45 | 31 | 62 |  |  | 75 | 32 | responders at 100 mg/kg [3]: 70% |
| COC(=O)CCC(NC(=O)CC(C[N+](C)(C)C)OC(C)=O)C(=O)OC (stereo not drawn) [COCH3; (1,3-dicarbomethoxy propyl) amino] | 1000 | 3600 | 40 |  |  | 19 |  |  | 70 | inhibition in vivo at 20 mg/kg [2]: 65%; responders at 150 mg/kg ([3]; 150 mg/kg i.p.): 40%; inhibition in vivo at 20 mg/kg ([5]; 20 mg/kg i.p. (head)): 40% |
| CCC(C)C(NC(=O)CC(C[N+](C)(C)C)OC(C)=O)C(=O)OC (stereo not drawn) | 500 | 1200 | 45 |  |  | 34 |  |  |  | inhibition in vivo at 40 mg/kg [2]: 65%; responders at 100 mg/kg [3]: 50%; responders at 100 mg/kg [4]: 53%; inhibition in vivo at 40 mg/kg ([5]; 40 mg/kg i.p. (head)): 35% |
| CCC(=O)OC(CC(=O)NC(C(=O)OC)C(C)CC)C[N+](C)(C)C (stereo not drawn) | 750 | 2500 | 65 | 27 |  |  |  | 65 | 39 | responders at 100 mg/kg [3]: 50%; change in vivo at 100 mg/kg ([6]; 100 mg/kg i.p.): 35% |
| COC(=O)C(CC(C)C)NC(=O)CC(C[N+](C)(C)C)OC(C)=O (stereo not drawn) | 1000 | 3500 | 45 |  |  | 28 | 35 | 70 |  | responders at 50 mg/kg [3]: 75%; responders at 150 mg/kg [4]: 60% |
| CCOC(=O)CC(O)CNC(=O)CC(C[N+](C)(C)C)OC(C)=O (stereo not drawn) | 450 | 1300 | 53 |  | 30 |  | 25 | 65 |  | responders at 70 mg/kg [3]: 60%; responders at 150 mg/kg [4]: 70% |
